Measurements published in PMC9116245, “New 1,2,3-triazole linked ciprofloxacin-chalcones induce DNA damage by inhibiting human topoisomerase I& II and tubulin polymerization” (Journal of Enzyme Inhibition and Medicinal Chemistry, 2022).
Where two headings read alike, the source gives them in different places. One block for each compound: values may come before it.

Assays:
[1] = system: Human Embryonic Kidney (HEK) 293 cells; test: Cytotoxicity assay with non-cancerous cells (MTS); assay type: cell-based; conditions: Homo sapiens; HEK293, 72 h incubation
[2] = system: HCT116; test: MTT assay; assay type: cell-based; conditions: Homo sapiens, HCT-116, 24 h incubation
Protocol: (§1) The proliferation of colorectal cancer cells (HCT116, HT29 and Caco-2) was assessed using MTT assay as previously reported. Cells were treated with increasing concentrations of 1, 5, 10, 20, 40, 80 or 100 µM of CP hybrids 4a-j, doxorubicin, or DMSO. See Supplementary Appendix A.

[3] = system: Caco-2; test: MTT assay; assay type: cell-based; conditions: Homo sapiens; Caco-2, MTT assay, 24 h incubation
Protocol: as §1

[4] = system: HT-29; test: MTT assay; assay type: cell-based; conditions: Homo sapiens; HT-29, MTT assay, 24 h incubation
Protocol: as §1

[5] = system: leukemia SR; design: method as in PMID 33248713, PMID 24090914; conditions: Figure 1; cited from earlier work
[6] = design: method as in PMID 33248713, PMID 24090914; conditions: Figure 1; cited from earlier work
[7] = system: MCF-7 cancer cell lines; design: method as in earlier work; conditions: cited from earlier work
[8] = system: normal lung fibroblast WI-38; design: method as in PMID 27555286; conditions: normal lung fibroblast WI-38, printed in Figure 1; cited from earlier work
[9] = system: non small lung cancer A459; design: method as in PMID 27555286; conditions: non small lung cancer A459, printed in Figure 1; cited from earlier work
[10] = system: polymerised tubulin; test: Western blot of polymerised tubulin in HCT116 cells; assay type: cell-based, human; conditions: HCT116, IC50 values of compounds
Protocol: (§2) The process of tubulin polymerisation in the cells is important for the completion of mitosis and is targeted for cancer treatment. It has been reported that the suppression of tubulin polymerisation will arrest the cells at the G2/M and it eventually leads to cell death. To test the tubulin-disruptive effect of the CP hybrids, HCT116 cells were analysed by immunocytochemistry. HCT116 cells were incubated for 36 h with IC50 of the CP hybrids (4a, 4b, 4e, 4i, and 4j), nocodazole (a well-known tubulin polymerisation inhibitor, as a positive control), DMSO or Paclitaxel (a well-known tubulin polymerisation inducer, as a negative control), and tubulin was visualised by immunofluorescence microscopy. An antibody for α-tubulin was used. […] Moreover, a Western blot was performed to verify the tubulin polymerisation inhibition ability of the synthesised compounds (Figure 8(B)). The level of polymerised tubulin was decreased in HCT116 cells treated with IC50 values of CP hybrids 4a, 4b, 4e, 4i, 4j, or nocodazole.
Western blotting analysis for HCT116 cells was performed according to the reported procedure in the literature[77–79] to determine the effects of CP hybrids; 4a, 4b, 4e, 4i, and 4j on the expression of polymerised tubulin, γH2AX, p-ATR, p-CHK1, and p-Cdc25C by using the appropriate antibody. See Supplementary Appendix A.

[11] = system: tubulin polymerisation; test: Tubulin immunofluorescence microscopy in HCT116 cells; assay type: cell-based, human; conditions: HCT116, IC50 of compound, 36 h
Protocol: as §2
HCT116 cells were cultured and treated with the IC50 of the potent compounds (4a, 4b, 4e, 4i, and 4j) or DMSO (control), fixed, permeabilized, and they were incubated with either γH2AX or α-tubulin antibody as the reported procedure in the literature. Confocal images were captured using a Confocal Microscope with a 63X objective. All images were processed using ImageJ software. See Supplementary Appendix A.

IC50 [2]: 1220 ± 270 nM
IC50 [3]: 4150 ± 1080 nM
IC50 [4]: 880 ± 580 nM
Structure (SMILES): COc1cccc2c1C(=O)c1c(O)c3c(c(O)c1C2=O)C[C@@](O)(C(=O)CO)C[C@@H]3O[C@H]1C[C@H](N)[C@H](O)[C@H](C)O1 [Doxorubicin, reference compound]
IC50 [1]: 47.5 nM

Structure (SMILES): CC[C@@]1(O)C(=O)OCc2c1cc1n(c2=O)Cc2cc3ccccc3nc2-1 [Camptothecin]
IC50 [5]: 3320 nM

Structure (SMILES): O=C(CN1CCN(c2cc3c(cc2F)c(=O)c(C(=O)O)cn3C2CC2)CC1)Nc1ccc(C(=O)/C=C/c2ccccc2)cc1 [I]
GI50 [6]: 430 to 39600 nM

Structure (SMILES): CCOc1cc(/C=C/C(=O)c2cccc(O)c2)ccc1OCc1cn(-c2cc(Cl)ccc2O)nn1 [X]
IC50 ([7]; MCF-7, 24 h): 1270 nM
IC50 ([7]; MCF-7, 48 h): 20 nM

Structure (SMILES): O=C(CN1CCN(c2cc3c(cc2F)c(=O)c(C(=O)O)cn3C2CC2)CC1)Nc1ccc(Cl)cc1 [III]
IC50 [8]: > 100000 nM
IC50 [9]: 14800 nM

Structure (SMILES): COC(=O)Nc1nc2ccc(C(=O)c3cccs3)cc2[nH]1 [nocodazole, reference compound]
level of polymerised tubulin, Western blot [10]: decreased
tubulin polymerisation, morphological changes by immunofluorescence [11]: significant tubulin polymerisation inhibition

Structure (SMILES): COc1cc(/C=C/C(=O)c2ccc(NC(=O)N3CCN(c4cc5c(cc4F)c(=O)c(C(=O)O)cn5C4CC4)CC3)cc2)cc(OC)c1OC [II]
IC50 [5]: 640 nM
